US10125100B2, “Kinase inhibitors” (Respivert Limited, priority 2014, dated 2018)
pIC50: −log10 of the molar value.

Experiments:
mitosis in PBMCs = test: (g) Cell mitosis assay; type: cell-based; conditions: Homo sapiens, PBMC, 5 μg/mL
Method: Peripheral blood mononucleocytes (PBMCs) from healthy subjects are separated from whole blood (Quintiles, London, UK) using a density gradient (Histopaque®-1077, Sigma-Aldrich, Poole, UK). The PBMCs (3 million cells per sample) are subsequently treated with 2% PHA (phytohaemagglutinin, Sigma-Aldrich, Poole, UK) for 48 hr, followed by a 20 hr exposure to varying concentrations of test compounds. At 2 hr before collection, PBMCs are treated with demecolcine (0.1 μg/mL; Invitrogen, Paisley, UK) to arrest cells in metaphase. To observe mitotic cells, PBMCs are permeabilized and fixed by adding Intraprep (50 μL; Beckman Coulter, France), and stained with anti-phospho-histone 3 ([…]; #9701; Cell Signalling, Danvers, Mass.) and propidium iodide (1 mg/mL; Sigma-Aldrich, Poole, UK) as previously described (Muehlbauer P. A. and Schuler M. J., Mutation Research, 2003, 537:117-130). Fluorescence is observed using an ATTUNE flow cytometer (Invitrogen, Paisley, UK), gating for lymphocytes.

Jurkat cells = test: (r) Cell cytotoxicity assay; type: cell-based, human; conditions: 24 hours
Procedure, shortened: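 Jurkat cells (1×10^5/well, RPMI + 10% FBS) exposed to compound at 20, 5 or 1 μg/mL final (1.0% DMSO control) for 24 h at 37° C., 5% CO2. Then stained with 7.5 μg/mL propidium iodide for 15 min. % viability = PI-negative cells by flow cytometry, normalized to DMSO.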

c-Src = c-Src (Homo sapiens (Human), UniProt P12931); test: c-Src enzyme inhibition, Z-LYTE FRET; type: biochemical
Sequence of c-Src (P12931 whole entry, looked up): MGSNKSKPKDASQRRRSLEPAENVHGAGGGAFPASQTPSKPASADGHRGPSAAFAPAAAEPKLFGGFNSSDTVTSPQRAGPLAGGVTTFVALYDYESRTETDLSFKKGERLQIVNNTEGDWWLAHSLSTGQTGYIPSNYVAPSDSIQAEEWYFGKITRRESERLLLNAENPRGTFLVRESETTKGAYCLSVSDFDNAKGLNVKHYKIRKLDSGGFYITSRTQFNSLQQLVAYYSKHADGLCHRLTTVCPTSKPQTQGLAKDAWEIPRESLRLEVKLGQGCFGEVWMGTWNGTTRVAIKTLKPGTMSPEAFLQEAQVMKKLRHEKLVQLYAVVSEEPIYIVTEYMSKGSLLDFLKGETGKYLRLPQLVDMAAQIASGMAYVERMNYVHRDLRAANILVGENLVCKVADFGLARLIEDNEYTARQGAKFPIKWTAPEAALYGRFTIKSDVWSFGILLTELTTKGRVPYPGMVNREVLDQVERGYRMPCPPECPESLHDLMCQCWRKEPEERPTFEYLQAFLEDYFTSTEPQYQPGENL
Method: (§1) The enzyme inhibitory activities of compounds disclosed herein are determined by FRET using synthetic peptides labelled with both donor and acceptor fluorophores (Z-LYTE, Invitrogen Ltd., Paisley, UK).
(§2) The inhibitory activities of compounds of the invention against c-Src and Syk enzymes (Invitrogen), are evaluated in a similar fashion to that described hereinabove. The relevant enzyme (3000 ng/mL or 2000 ng/mL respectively, 2.5 μL) is incubated with the test compound (either 1 μg/mL, 0.1 μg/mL, 0.01 μg/mL, or 0.001 μg/mL, 2.5 μL each) for 2 hr at RT. The FRET peptides (8 μM, 2.5 μL), and appropriate ATP solutions (2.5 μL, 800 μM for c-Src, and 60 μM ATP for Syk) are then added to the enzymes/compound mixtures and the mixture incubated for 1 hr. Development reagent (protease, 5 μL) is added for 1 hr prior to detection in a fluorescence microplate reader (Varioskan® Flash, ThermoFisher Scientific).
(§3) In all cases, the site-specific protease cleaves non-phosphorylated peptide only and eliminates the FRET signal. Phosphorylation levels of each reaction are calculated using the ratio of coumarin emission (donor) over fluorescein emission (acceptor), for which high ratios indicate high phosphorylation and low ratios indicate low phosphorylation levels.

p38 MAPKα (MAPK14) = p38 MAPKα (MAPK14) (Homo sapiens (Human), UniProt Q16539); test: p38 MAPKα enzyme inhibition (Method 2), Z-LYTE FRET; type: biochemical
Sequence of p38 MAPKα (MAPK14) (Q16539 whole entry): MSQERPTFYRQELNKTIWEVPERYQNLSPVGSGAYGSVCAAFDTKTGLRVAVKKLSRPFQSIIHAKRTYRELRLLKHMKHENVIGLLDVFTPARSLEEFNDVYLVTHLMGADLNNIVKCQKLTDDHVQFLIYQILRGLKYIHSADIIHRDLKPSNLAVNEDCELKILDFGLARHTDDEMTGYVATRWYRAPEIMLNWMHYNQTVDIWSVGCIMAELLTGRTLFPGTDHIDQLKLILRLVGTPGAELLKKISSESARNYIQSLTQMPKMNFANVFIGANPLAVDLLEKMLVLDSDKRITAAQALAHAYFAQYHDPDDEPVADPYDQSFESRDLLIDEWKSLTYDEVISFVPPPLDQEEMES
Method: as §1
The following two assay variants can be used for determination of p38 MAPKα inhibition.
The inhibitory activities of test compounds against the p38 MAPKα isoform (MAPK14: Invitrogen) are evaluated indirectly by determining the level of activation/phosphorylation of the down-stream molecule, MAPKAP-K2. The p38 MAPKα protein (80 ng/mL, 2.5 μL) is mixed with the test compound (2.5 μL of either 4 μg/mL, 0.4 μg/mL, 0.04 μg/mL or 0.004 μg/mL) for 2 hr at RT. […] The mixture is incubated for 1 hr at RT. Development reagent (protease, 5 μL) is added for 1 hr prior to detection in a fluorescence microplate reader (Varioskan® Flash, ThermoFisher Scientific).
This method follows the same steps as Method 1 above, but utilises a higher concentration of the p38 MAPKα protein (2.5 μL of 200 ng/mL protein instead of 2.5 μL of 80 ng/mL protein) for mixing with the test compound (tested at either 1 μg/mL, 0.1 μg/mL, 0.01 μg/mL or 0.001 μg/mL).
as §3

Syk = Syk (Homo sapiens (Human), UniProt P43405); test: Syk enzyme inhibition, Z-LYTE FRET; type: biochemical
Method: as §1
as §2, with “The” for “The inhibitory activities of compounds of the invention against c-Src and Syk enzymes (Invitrogen), are evaluated in a similar fashion to that described hereinabove. The”
as §3

Row | SMILES | inhibition at 5 µg/mL (mitosis in PBMCs) [%] | % Viability at 1 μg/mL (Jurkat cells) [%] | % Viability at 5 μg/mL (Jurkat cells) [%] | % Viability at 20 μg/mL (Jurkat cells) [%] | pIC50 (c-Src) | pIC50 (p38 MAPKα (MAPK14)) | pIC50 (Syk)
1 | COc1cc(Nc2cc(Oc3ccc(NC(=O)Nc4cc(C(C)(C)C)cc(NS(C)(=O)=O)c4OC)c4ccccc34)ccn2)ccc1C(=O)NCCCCN1CCOCC1 [17(y), 4-[[4-[[4-[[5-tert-butyl-3-(methanesulfonamido)-2-methoxy-phenyl]carbamoylamino]-1-naphthyl]oxy]-2-pyridyl]amino]-2-methoxy-N-(4-morpholinobutyl)benzamide] | 70.8 | – | – | – | – | – | –
2 | COCCN(C)CCNC(=O)c1ccc(Nc2cc(Oc3ccc(NC(=O)Nc4cc(C(C)(C)C)cc(NS(C)(=O)=O)c4OC)c4ccccc34)ccn2)cc1OC [17(ad), 4-[[4-[[4-[[5-tert-butyl-3-(methanesulfonamido)-2-methoxy-phenyl]carbamoylamino]-1-naphthyl]oxy]-2-pyridyl]amino]-2-methoxy-N-[2-[2-methoxyethyl(methyl)amino]ethyl]-benzamide] | 93.4 | 101.4 | 6.3 | 0.4 | – | – | –
3 | COc1c(NC(=O)Nc2ccc(Oc3ccnc(Nc4ccc(C(=O)NCCN5CCOCC5)cc4)c3)c3ccccc23)cc(C(C)(C)C)cc1NS(C)(=O)=O [17(u), 4-[[4-[[4-[[5-tert-butyl-3-(methanesulfonamido)-2-methoxy-phenyl]carbamoylamino]-1-naphthyl]oxy]-2-pyridyl]amino]-N-(2-morpholinoethyl)benzamide] | 86.9 | – | – | – | – | – | –
4 | COc1cc(Nc2cc(Oc3ccc(NC(=O)Nc4cc(C(C)(C)C)cc(N(CCO)S(C)(=O)=O)c4OC)c4ccccc34)ccn2)ccc1C(=O)NCCN1CC[S+]([O-])CC1 [Example 48, 4-((4-((4-(3-(5-(tert-Butyl)-3-(N-(2-hydroxyethyl)methylsulfonamido)-2-methoxyphenyl)-ureido)naphthalen-1-yl)oxy)pyridin-2-yl)amino)-2-methoxy-N-(2-(1-oxidothiomorpholino)-ethyl)benzamide] | – | 89.0 | 63.8 | 54.2 | 7.70 | 7.54 | 7.26
5 | COc1c(NC(=O)Nc2ccc(Oc3ccnc(Nc4ccc(C(=O)O)c(N(C)C)c4)c3)c3ccccc23)cc(C(C)(C)C)cc1NS(C)(=O)=O [17(am), 4-[[4-[[4-[[5-tert-butyl-3-(methanesulfonamido)-2-methoxy-phenyl]carbamoylamino]-1-naphthyl]oxy]-2-pyridyl]amino]-2-(dimethylamino)benzoic acid] | – | 103.4 | 90.5 | 32.5 | 7.17 | 8.40 | 6.91
6 | COc1cc(Nc2cc(Oc3ccc(NC(=O)Nc4cc(C(C)(C)C)cc(NS(C)(=O)=O)c4OC)c4ccccc34)ccn2)cc(OC)c1C(=O)NCCN(C)C [Example 39, 4-((4-((4-(3-(5-(tert-Butyl)-2-methoxy-3-(methylsulfonamido)phenyl)ureido)naphthalen-1-yl)oxy)pyridin-2-yl)amino)-N-(2-(dimethylamino)ethyl)-2,6-dimethoxybenzamide] | – | 93.9 | 87.7 | 1.5 | 7.77 | 8.22 | 6.59
7 | COc1cc(Nc2cc(Oc3ccc(NC(=O)Nc4cc(C(C)(C)C)cc(NS(C)(=O)=O)c4OC)c4ccccc34)ccn2)ccc1C(=O)NCCN1CCN(CCO)CC1 [17(z), 4-[[4-[[4-[[5-tert-butyl-3-(methanesulfonamido)-2-methoxy-phenyl]carbamoylamino]-1-naphthyl]oxy]-2-pyridyl]amino]-N-[2-[4-(2-hydroxyethyl)piperazin-1-yl]ethyl]-2-methoxy-benzamide] | 69.7 | 102.9 | 70.9 | 2.0 | – | – | –
8 | COc1cc(Nc2cc(Oc3ccc(NC(=O)Nc4cc(C(C)(C)C)cc(NS(C)(=O)=O)c4OC)c4ccccc34)ccn2)ccc1C(=O)NCCN(C)CCO [17(ac), 4-[[4-[[4-[[5-tert-butyl-3-(methanesulfonamido)-2-methoxy-phenyl]carbamoylamino]-1-naphthyl]oxy]-2-pyridyl]amino]-N-[2-[2-hydroxyethyl(methyl)amino]ethyl]-2-methoxy-benzamide] | 85.8 | – | – | – | – | – | –
9 | COc1cc(Nc2cc(Oc3ccc(NC(=O)Nc4cc(C(C)(C)C)cc(NS(C)(=O)=O)c4OC)c4ccccc34)ccn2)ccc1C(=O)NCCN1CCC(F)(F)CC1 [17(al), 4-[[4-[[4-[[5-tert-butyl-3-(methanesulfonamido)-2-methoxy-phenyl]carbamoylamino]-1-naphthyl]oxy]-2-pyridyl]amino]-N-[2-(4,4-difluoro-1-piperidyl)ethyl]-2-methoxy-benzamide] | 21.2 | – | – | – | – | – | –
10 | COc1cc(Nc2cc(Oc3ccc(NC(=O)Nc4cc(C(C)(C)C)cc(NS(C)(=O)=O)c4OC)c4ccccc34)ccn2)cc(OC)c1C(=O)NCCN1CCN(C)CC1 [Example 22, 4-((4-((4-(3-(5-(tert-Butyl)-2-methoxy-3-(methylsulfonamido)phenyl)ureido)naphthalen-1-yl)oxy)pyridin-2-yl)amino)-2,6-dimethoxy-N-(2-(4-methylpiperazin-1-yl)ethyl)benzamide] | – | 102.8 | 96.6 | 42.9 | 7.77 | 8.22 | 6.86
11 | COc1cc(Nc2cc(Oc3ccc(NC(=O)Nc4cc(C(C)(C)C)cc(NS(C)(=O)=O)c4OC)c4ccccc34)ccn2)ccc1S(=O)(=O)CCOCCOCCO [Example 40, N-(5-(tert-Butyl)-3-(3-(4-((2-((4-((2-(2-(2-hydroxyethoxy)ethoxy)ethyl)sulfonyl)-3-methoxyphenyl)amino)pyridin-4-yl)oxy)naphthalen-1-yl)ureido)-2-methoxyphenyl)-methanesulfonamide] | – | 89.6 | 73.6 | 67.1 | 6.71 | 6.79 | 6.40
12 | COc1cc(Nc2cc(Oc3ccc(NC(=O)Nc4cc(C(C)(C)C)cc(NS(C)(=O)=O)c4OC)c4ccccc34)ccn2)ccc1C(=O)NCCCN1CCCOCC1 [17(aj), 4-[[4-[[4-[[5-tert-butyl-3-(methanesulfonamido)-2-methoxy-phenyl]carbamoylamino]-1-naphthyl]oxy]-2-pyridyl]amino]-2-methoxy-N-[3-(1,4-oxazepan-4-yl)propyl]benzamide] | 94.9 | – | – | – | 7.92 | – | 7.48
13 | COc1cc(Nc2cc(Oc3ccc(NC(=O)Nc4cc(C(C)(C)C)cc(NS(C)(=O)=O)c4OC)c4ccccc34)ccn2)ccc1C(=O)NCCN1CCCOCC1 [17(ai), 4-[[4-[[4-[[5-tert-butyl-3-(methanesulfonamido)-2-methoxy-phenyl]carbamoylamino]-1-naphthyl]oxy]-2-pyridyl]amino]-2-methoxy-N-[2-(1,4-oxazepan-4-yl)ethyl]benzamide] | 89.1 | – | – | – | 7.85 | – | 7.07
